Results taken from ChEMBL document CHEMBL1201862, “PubChem BioAssay data set” (2004).
Active and inactive are the calls of the source.

What was measured:
[1] = viability loss in THP-1 monocytes – THP-1 cells, cytotoxicity control for Vif-APOBEC3G degradation inhibitor project, dose response (AID 1117359); assay type: functional; settings: THP-1
[2] = tested on: HEK293; assay: NOD2 signaling inhibitors in MDP-stimulated cells, cell-based, uHTS, luminescence (AID 2001); assay type: functional; settings: Homo sapiens
[3] = tested on: HEK293; assay: cells; assay type: functional, cell-based; settings: Homo sapiens
[4] = target: T1, Hexokinase HKDC1 (Homo sapiens, UniProt Q2TB90); assay: inhibition of HKDC1 glucose phosphorylation – biochemical, W721R variant, dose response (AID 504729); assay type: functional
T1 sequence (Q2TB90 whole entry): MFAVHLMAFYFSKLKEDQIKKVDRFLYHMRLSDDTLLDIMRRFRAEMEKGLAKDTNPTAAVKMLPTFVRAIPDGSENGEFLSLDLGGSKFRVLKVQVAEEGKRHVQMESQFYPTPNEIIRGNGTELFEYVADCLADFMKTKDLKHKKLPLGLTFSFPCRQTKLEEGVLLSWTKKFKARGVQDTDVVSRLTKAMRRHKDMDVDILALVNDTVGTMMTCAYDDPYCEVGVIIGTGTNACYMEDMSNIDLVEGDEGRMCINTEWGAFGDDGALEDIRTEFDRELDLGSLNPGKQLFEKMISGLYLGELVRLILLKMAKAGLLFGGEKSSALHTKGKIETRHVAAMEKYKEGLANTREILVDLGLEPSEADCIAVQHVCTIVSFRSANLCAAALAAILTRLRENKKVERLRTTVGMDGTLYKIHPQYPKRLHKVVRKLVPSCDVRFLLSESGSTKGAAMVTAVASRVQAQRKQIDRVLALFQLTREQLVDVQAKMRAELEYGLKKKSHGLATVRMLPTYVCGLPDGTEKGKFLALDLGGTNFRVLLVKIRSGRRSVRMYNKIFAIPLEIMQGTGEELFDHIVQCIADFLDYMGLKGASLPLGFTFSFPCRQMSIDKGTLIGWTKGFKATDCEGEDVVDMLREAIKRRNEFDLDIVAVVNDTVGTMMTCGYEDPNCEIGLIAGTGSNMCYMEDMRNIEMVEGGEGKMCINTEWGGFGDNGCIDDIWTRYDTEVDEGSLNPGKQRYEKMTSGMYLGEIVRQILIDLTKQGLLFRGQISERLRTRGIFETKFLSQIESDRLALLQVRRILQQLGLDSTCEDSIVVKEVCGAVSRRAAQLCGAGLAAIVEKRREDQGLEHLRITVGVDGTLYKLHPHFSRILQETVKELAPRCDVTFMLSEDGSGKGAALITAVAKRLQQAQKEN

[5] = target: Heat shock protein HSP 90-alpha (Homo sapiens, UniProt P07900); assay type: functional, organism-based
[6] = tested on: HEK293; assay: cells; assay type: functional, cell-based; settings: Homo sapiens; remark: listed apart in the source
[7] = target: T2, Nucleotide-binding oligomerization domain-containing protein 2 (Homo sapiens, UniProt Q9HC29); assay: PubChem AID 2334; assay type: functional
T2 sequence (Q9HC29 whole entry, the tested form may be a part): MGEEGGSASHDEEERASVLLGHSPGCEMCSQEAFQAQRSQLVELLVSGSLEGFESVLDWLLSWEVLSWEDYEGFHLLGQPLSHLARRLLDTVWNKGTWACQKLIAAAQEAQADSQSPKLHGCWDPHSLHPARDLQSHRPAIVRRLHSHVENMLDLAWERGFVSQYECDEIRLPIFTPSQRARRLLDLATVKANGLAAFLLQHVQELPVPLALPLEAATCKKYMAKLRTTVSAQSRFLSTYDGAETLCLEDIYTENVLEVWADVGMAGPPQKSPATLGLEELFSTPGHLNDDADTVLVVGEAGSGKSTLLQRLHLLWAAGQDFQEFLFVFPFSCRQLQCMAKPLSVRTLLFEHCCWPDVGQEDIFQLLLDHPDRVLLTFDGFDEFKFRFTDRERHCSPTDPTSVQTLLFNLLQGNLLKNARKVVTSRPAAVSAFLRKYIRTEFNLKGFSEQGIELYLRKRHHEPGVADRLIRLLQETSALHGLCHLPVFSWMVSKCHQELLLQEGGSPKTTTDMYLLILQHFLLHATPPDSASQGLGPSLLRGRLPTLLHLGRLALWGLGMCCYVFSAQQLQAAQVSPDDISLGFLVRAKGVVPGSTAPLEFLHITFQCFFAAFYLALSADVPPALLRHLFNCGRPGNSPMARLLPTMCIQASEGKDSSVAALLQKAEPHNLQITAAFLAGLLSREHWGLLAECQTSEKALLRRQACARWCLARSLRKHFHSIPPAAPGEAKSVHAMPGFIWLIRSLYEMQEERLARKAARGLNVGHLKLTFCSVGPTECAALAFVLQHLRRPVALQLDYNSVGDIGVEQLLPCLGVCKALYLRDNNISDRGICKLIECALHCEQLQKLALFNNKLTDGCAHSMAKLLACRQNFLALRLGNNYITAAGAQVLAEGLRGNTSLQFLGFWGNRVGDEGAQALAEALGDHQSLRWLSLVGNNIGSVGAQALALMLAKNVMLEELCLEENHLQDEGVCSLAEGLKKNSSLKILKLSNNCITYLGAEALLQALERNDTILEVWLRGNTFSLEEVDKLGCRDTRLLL

[8] = tested on: HEK293; assay: cells; settings: Homo sapiens
[9] = target: T3, Runt-related transcription factor 1/Core-binding factor subunit beta (Homo sapiens, UniProt Q01196+Q13951); assay: disruptors of Runt domain/CBFb-SMMHC interaction – biochemical, FRET, Cerulean-Runt, Venus-CBFb-SMMHC, uHTS, […] (AID 1434); assay type: protein assay
T3 sequence (Q01196 whole entry, the tested form may be a part): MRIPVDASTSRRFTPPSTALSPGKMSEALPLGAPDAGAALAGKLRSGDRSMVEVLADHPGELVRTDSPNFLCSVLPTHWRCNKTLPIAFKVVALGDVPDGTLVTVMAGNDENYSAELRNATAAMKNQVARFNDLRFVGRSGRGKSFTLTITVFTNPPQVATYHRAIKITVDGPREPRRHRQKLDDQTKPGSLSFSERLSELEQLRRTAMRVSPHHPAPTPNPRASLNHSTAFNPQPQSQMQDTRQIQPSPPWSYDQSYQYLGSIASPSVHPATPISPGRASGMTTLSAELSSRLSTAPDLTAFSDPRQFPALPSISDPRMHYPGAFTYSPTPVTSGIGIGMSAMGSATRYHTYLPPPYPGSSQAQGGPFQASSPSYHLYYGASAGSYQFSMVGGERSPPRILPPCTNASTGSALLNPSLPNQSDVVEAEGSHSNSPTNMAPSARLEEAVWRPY
T3 sequence (Q13951 whole entry, the tested form may be a part): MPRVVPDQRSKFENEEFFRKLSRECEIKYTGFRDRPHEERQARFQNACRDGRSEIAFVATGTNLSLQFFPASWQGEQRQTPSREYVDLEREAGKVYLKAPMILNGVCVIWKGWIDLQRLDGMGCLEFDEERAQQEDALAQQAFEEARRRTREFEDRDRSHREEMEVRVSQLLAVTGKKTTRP

[10] = target: T2, Nucleotide-binding oligomerization domain-containing protein 2; assay: inhibition of NOD2-driven NF-kB reporter – cell-based, luminescence, uHTS, HEK293 (AID 1566); assay type: functional
[11] = target: Tumor necrosis factor (Homo sapiens, UniProt P01375); assay: analog potency on TNFa NF-kB signaling – cell-based, revised, SAR follow-up (AID 2337); assay type: functional
Sequence of Tumor necrosis factor (P01375 whole entry): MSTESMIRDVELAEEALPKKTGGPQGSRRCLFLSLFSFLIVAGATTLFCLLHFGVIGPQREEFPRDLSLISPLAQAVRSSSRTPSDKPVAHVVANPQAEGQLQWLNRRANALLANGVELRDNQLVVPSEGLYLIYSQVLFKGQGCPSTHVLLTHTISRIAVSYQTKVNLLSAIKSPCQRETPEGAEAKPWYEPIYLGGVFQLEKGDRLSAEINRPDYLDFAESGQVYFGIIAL

[12] = tested on: HEK293; assay: inhibition of NOD1-driven NF-kB reporter – cell-based, luminescence, uHTS, primary screen (AID 1578); assay type: functional; settings: Homo sapiens
[13] = tested on: HEK293; assay: cells; assay type: functional, cell-based; settings: Homo sapiens; remark: listed apart in the source
[14] = target: T3, Runt-related transcription factor 1/Core-binding factor subunit beta; assay: Runt domain/CBFb-SMMHC interaction disruptors – biochemical, TR-FRET (AID 1438); assay type: protein assay
[15] = target: G-protein coupled receptor 35 (Homo sapiens, UniProt Q9HC97); assay: inhibition of zaprinast-stimulated GPR35 beta-arrestin translocation – imaging, U2OS, beta-arrestin-GFP, zaprinast agonist, primary screen (AID 2058); assay type: functional;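 also: antagonist potency meaning inhibition of agonist-induced arrestin redistribution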
Sequence of G-protein coupled receptor 35 (Q9HC97 whole entry, the tested form may be a part): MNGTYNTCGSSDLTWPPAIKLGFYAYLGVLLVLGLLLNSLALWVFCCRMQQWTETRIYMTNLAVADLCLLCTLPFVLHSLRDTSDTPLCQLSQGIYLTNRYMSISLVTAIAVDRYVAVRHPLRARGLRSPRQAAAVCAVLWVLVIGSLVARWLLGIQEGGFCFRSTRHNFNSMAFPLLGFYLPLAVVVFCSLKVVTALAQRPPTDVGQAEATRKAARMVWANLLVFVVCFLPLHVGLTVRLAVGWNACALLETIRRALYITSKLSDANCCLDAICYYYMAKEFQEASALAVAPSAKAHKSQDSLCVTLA

[16] = target: T4, Nucleotide-binding oligomerization domain-containing protein 1 (Homo sapiens, UniProt Q9Y239); assay: blockers of NOD1 pathway activity – revised, SAR follow-up (AID 2333); assay type: functional
T4 sequence (Q9Y239 whole entry): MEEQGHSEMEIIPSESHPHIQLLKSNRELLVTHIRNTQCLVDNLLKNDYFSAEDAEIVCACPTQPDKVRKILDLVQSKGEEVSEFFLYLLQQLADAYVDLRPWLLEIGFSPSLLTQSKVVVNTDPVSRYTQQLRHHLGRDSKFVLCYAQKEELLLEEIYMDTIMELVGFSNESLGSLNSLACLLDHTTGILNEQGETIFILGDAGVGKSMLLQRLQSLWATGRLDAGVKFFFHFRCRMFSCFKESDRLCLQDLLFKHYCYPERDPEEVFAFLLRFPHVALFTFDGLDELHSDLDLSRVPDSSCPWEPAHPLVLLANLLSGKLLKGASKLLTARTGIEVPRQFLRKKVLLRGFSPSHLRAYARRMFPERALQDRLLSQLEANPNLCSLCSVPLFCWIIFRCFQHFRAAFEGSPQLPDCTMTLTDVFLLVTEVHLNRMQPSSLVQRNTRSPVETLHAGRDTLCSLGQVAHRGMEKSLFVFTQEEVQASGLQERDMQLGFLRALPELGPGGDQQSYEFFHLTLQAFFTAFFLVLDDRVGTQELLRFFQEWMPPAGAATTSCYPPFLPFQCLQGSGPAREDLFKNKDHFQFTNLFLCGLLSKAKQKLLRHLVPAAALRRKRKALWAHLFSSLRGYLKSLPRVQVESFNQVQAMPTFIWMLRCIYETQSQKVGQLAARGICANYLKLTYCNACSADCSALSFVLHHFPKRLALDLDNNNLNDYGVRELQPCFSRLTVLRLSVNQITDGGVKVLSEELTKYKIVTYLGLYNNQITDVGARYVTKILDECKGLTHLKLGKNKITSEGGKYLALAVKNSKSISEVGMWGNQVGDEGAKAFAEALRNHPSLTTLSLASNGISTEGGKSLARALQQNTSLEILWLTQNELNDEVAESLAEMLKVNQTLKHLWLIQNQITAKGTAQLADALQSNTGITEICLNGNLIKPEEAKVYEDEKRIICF

[17] = target: Beta-galactosidase (Escherichia coli, UniProt Q8VNN2); assay: detection-enzyme interference by beta-gal modulators – biochemical, E. coli enzyme, set 3, artefact control for CCR6 antagonist project, dose response (AID 504712); assay type: functional
Sequence of Beta-galactosidase (Q8VNN2 whole entry): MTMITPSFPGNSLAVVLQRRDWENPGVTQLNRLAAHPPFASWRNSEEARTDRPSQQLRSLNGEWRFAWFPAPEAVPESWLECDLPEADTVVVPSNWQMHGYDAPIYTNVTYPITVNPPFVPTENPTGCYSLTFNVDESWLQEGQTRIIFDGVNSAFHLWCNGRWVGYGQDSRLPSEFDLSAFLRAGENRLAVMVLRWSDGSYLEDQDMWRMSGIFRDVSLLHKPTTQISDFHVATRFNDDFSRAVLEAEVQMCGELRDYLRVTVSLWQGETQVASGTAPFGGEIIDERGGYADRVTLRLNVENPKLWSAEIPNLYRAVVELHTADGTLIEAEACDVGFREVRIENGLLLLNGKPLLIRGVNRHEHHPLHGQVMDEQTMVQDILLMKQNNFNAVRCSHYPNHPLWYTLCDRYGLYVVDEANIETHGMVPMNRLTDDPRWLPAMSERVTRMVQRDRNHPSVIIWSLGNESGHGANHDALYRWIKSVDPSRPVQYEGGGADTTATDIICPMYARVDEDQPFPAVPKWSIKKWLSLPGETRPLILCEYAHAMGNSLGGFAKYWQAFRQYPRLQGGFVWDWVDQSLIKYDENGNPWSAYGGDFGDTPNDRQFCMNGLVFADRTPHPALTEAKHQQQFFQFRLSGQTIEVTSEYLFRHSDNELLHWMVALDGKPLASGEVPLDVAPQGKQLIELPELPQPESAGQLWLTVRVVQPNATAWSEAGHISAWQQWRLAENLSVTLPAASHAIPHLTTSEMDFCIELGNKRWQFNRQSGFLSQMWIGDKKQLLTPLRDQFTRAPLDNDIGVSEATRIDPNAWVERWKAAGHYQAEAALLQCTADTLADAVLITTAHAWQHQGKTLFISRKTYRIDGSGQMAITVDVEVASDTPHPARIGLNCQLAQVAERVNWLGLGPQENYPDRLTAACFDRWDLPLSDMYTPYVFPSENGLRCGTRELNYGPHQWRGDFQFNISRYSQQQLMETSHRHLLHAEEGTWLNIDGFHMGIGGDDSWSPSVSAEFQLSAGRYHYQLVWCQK

[18] = luciferase reporter signal suppression in cells – H4 neuroglioma cells, luminescence, dose response (AID 1990); assay type: functional, cell-based
[19] = Luminescence Cell-Based Dose Response HTS to Identify Inhibitors of 5'UTR Stem-Loop Driven Prion Protein mRNA Translation in H4 Neuroglioblastoma Cells. [Related pubchem assays: 1827 (Project Summary), 1813 (Primary HTS)]; assay type: functional
[20] = target: Sphingosine 1-phosphate receptor 4 (Homo sapiens, UniProt O95977); assay: Late-stage fluorescence dose response cell-based assay to identify agonists of the Sphingosine 1-Phosphate Receptor 4 (S1P4): purchased compounds EC50. [Related pubchem assays (depositor defined):AID1509, AID1523, AID1563, AID1686, AID1701, AID1801]; assay type: functional
Sequence of Sphingosine 1-phosphate receptor 4 (O95977 whole entry): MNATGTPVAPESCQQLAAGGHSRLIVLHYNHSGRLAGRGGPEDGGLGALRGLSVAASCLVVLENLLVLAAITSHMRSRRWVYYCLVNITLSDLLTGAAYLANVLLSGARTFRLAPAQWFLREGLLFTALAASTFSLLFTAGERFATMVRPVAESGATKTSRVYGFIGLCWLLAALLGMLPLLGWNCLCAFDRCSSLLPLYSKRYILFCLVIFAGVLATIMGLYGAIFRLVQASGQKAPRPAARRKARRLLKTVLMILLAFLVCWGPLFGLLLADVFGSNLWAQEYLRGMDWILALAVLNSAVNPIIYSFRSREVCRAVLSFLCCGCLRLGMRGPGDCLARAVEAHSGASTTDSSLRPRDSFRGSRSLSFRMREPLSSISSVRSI

[21] = alpha-synuclein stem-loop luciferase translation blockers – H4 neuroglioma cells, luminescence, confirmation (AID 1988); assay type: functional, cell-based
[22] = tested on: BJ; assay: cells; assay type: functional, cell-based; settings: Homo sapiens
[23] = Luminescence Cell-Based Dose Retest to Confirm Activators of 5'UTR Stem-Loop Driven Alpha-Synuclein mRNA Translation in H4 Neuroglioblastoma Cells. [Related pubchem assays (depositor defined):AID1813, AID1829]; assay type: functional
[24] = tested on: BJ; assay: BJ-TERT fibroblast viability loss – cell-based, RAS-independent, luminescence, dose response (AID 1933); assay type: functional; settings: Homo sapiens
[25] = DRD fibroblast viability loss – cell-based, non-viral oncogenic, luminescence, dose response (AID 1934); assay type: functional; settings: Homo sapiens
[26] = tested on: BJ; assay: BJ-TERT-LT-ST fibroblast viability loss – cell-based, RAS-independent, luminescence, dose response (AID 1935); assay type: functional; settings: Homo sapiens;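 also: BJ fibroblasts immortalized with TERT plus LT and ST oncogenes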
[27] = Luminescence Cell-Based Dose Response HTS to Identify Activators of 5'UTR Stem-Loop Driven Prion Protein mRNA Translation in H4-C Neuroglioblastoma Cells. [Related pubchem assays: 1829 (Project Summary), 1814 (Primary HTS)]; assay type: functional
[28] = Luminescence Cell-Based Dose Response HTS to Identify Inhibitors of Luciferase Translation or Activity in H4-C Neuroglioblastoma Cells. [Related pubchem assays: 1813 (Primary HTS), 1827 (Project Summary)]; assay type: functional
[29] = Luminescence Cell-Based Dose Response HTS to Identify Activators of Luciferase Translation or Activity in H4-C Neuroglioblastoma Cells. [Related pubchem assays: 1829 (Project Summary), 1814 (Primary HTS)]; assay type: functional
[30] = Luminescence Cell-Based Dose HTS Response to Identify Inhibitors of 5'UTR Stem-Loop Driven Prion Protein mRNA Translation in H4-C Neuroglioblastoma Cells. [Related pubchem assays (depositor defined):AID1814, AID1827]; assay type: functional
[31] = Luminescence Cell-Based Dose Confirmation HTS to Identify Inhibitors of 5'UTR Stem-Loop Driven Alpha-Synuclein mRNA Translation in H4 Neuroglioblastoma Cells. [Related pubchem assays: 1827 (Project Summary), 1813 (Primary HTS)]; assay type: functional
[32] = target: Trypsin (Sus scrofa, UniProt P00761); assay: trypsin protease activity blockade – biochemical, quenched peptide fluorescence, cherry-pick, selectivity assay for Rce1 protease inhibitor project, dose response (AID 488789)
Sequence of Trypsin (P00761 whole entry): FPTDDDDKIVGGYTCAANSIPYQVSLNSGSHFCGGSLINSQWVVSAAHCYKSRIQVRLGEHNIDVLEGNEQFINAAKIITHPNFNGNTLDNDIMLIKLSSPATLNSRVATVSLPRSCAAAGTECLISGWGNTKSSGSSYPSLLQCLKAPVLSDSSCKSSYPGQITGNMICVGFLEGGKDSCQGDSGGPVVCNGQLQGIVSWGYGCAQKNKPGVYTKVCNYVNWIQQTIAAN

[33] = target: T5, CAAX prenyl protease 2 (Saccharomyces cerevisiae S288c, UniProt Q03530); assay type: biochemical
T5 sequence (Q03530 whole entry): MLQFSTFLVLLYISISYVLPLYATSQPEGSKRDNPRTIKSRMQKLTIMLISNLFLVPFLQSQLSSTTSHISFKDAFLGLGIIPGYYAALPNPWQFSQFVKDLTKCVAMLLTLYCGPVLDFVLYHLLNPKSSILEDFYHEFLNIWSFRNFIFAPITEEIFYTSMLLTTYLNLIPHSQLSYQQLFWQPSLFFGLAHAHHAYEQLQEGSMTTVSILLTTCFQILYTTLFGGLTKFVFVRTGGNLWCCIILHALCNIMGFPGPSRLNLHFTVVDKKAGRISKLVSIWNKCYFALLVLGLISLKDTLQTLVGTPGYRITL

[34] = target: Type-1 angiotensin II receptor (Homo sapiens, UniProt P30556); assay: agonist activity at AGTR1 – cell-based, uHTS hits, selectivity assay for APJ receptor agonist project, dose response (AID 488865); assay type: functional;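 also: beta-arrestin recruitment to AT1 measured by enzyme fragment complementation luminescence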
Sequence of Type-1 angiotensin II receptor (P30556 whole entry, the tested form may be a part): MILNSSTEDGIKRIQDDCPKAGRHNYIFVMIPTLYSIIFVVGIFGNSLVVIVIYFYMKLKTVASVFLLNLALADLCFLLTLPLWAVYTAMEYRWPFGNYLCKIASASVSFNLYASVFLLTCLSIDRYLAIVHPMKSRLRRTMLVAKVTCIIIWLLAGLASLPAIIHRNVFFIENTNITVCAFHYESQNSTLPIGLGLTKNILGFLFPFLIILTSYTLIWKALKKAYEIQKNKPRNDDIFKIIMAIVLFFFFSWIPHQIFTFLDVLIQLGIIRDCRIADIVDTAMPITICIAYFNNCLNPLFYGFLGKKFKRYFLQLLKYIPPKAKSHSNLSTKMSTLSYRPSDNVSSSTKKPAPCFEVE

[35] = target: Coagulation factor XII (Homo sapiens, UniProt P00748); assay: Factor XIIa Dose Response Confirmation from Single Well HTS. [Related pubchem assays (depositor defined):AID701]; assay type: functional
Sequence of Coagulation factor XII (P00748 20-372 limits assumed): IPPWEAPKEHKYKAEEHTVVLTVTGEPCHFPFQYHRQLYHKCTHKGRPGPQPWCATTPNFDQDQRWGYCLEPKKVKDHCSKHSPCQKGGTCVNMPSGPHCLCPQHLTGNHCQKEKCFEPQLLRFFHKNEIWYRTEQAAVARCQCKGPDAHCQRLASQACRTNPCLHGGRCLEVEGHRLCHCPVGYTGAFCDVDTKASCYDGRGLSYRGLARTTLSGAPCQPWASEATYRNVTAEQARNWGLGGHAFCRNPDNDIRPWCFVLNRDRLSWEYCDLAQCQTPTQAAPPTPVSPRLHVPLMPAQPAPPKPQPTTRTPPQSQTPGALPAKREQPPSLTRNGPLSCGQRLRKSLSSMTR
Sequence of Coagulation factor XII (P00748 373-615 limits assumed): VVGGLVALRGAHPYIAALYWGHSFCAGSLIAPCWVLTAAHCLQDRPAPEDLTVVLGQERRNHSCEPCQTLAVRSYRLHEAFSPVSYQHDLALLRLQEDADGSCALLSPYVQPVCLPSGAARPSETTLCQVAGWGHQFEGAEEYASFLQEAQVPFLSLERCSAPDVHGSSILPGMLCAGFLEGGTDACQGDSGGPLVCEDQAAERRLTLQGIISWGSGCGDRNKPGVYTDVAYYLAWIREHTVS

## CCOC(=O)C1=C(Cc2ccc(Cl)cc2)C(=O)c2ccccc2C1=O
[1]
  CC50: 19.4 µM (active)
[2]
  IC50: > 20 µM (inactive)
[3]
  IC50: > 20 µM (inactive)
[4]
  IC50: 12.2 µM (active)
[5]
  AC50: 27.2 µM (active)
[6]
  IC50: > 20 µM (inactive)
[7]
  IC50: 7.01 µM (active)
[8]
  IC50: > 20 µM (inactive)
[9]
  IC50: > 100 µM (inactive)
[10]
  EC50: > 20 µM (inactive)
[11]
  IC50: 6.24 µM (active)
[12]
  EC50: 12.2 µM (active)
[13]
  IC50: > 20 µM (inactive)
[14]
  IC50: 43.6 µM (active)
[15]
  IC50: 4.3 µM (active)
[16]
  IC50: 5.78 µM (active)
[17]
  IC50: > 66.6 µM (inactive)

## CCc1ccc(NC(=O)C(C)OC(=O)c2c(C)nn(Cc3ccccc3)c2Cl)cc1 (stereo not drawn)
[18]
  EC50: 16.4 µM (active)
[19]
  EC50: > 120 µM (not active)
[20]
  EC50: > 50 µM (inactive)
[21]
  EC50: > 120 µM (not active)

## COc1ccc2c(c1)C(C)=CC(C)(C)N2S(=O)(=O)c1ccc(NC(C)=O)cc1
[22]
  EC50: 5.92 µM (active)
[23]
  EC50: 11.6 µM (inconclusive)
[24]
  EC50: 1.89 µM (inconclusive)
[25]
  EC50: 1.06 µM (inconclusive)
[26]
  EC50: 7.05 µM (inconclusive)
[27]
  EC50: 1.69 µM (inconclusive)
[28]
  EC50: 2.91 µM (active)
[18]
  EC50: 14.4 µM (active)
[19]
  EC50: > 60 µM (not active)
[29]
  EC50: 2.91 µM (inconclusive)
[21]
  EC50: 0.514 µM (active)
[30]
  EC50: 1.69 µM (active)
[31]
  EC50: 11.6 µM (active)

## CCC(C)NC(=O)CSC1=Nc2ccccc2C2=NC(CC(=O)NCc3ccc(F)cc3)C(=O)N12 (stereo not drawn)
[32]
  AC50: 16.1 µM (active)
[33]
  AC50: 15.8 µM (active)
[34]
  EC50: > 100 µM (inactive)

## COc1cc(OC)c2c(N)c(C#N)c(C(F)(F)C(F)(F)F)nc2c1
[35]
  IC50: > 50 µM (inactive)
